The text below walks through data of patent US11739098B2 (BRISTOL-MYERS SQUIBB COMPANY, priority 2017, dated 2023).

As a reminder, the IC50 is the concentration that inhibits the measured activity by half. A low value points to greater potency.

Bounds are passed on as bounds.

Format in all cases: cell-based
One assay concerns the target T1, human TLR9 (Homo sapiens, UniProt Q9NR96).
T1 construct: host or cells: HEK-Blue cells (HEK293-derived reporter line)
T1 sequence (Q9NR96 26-1032): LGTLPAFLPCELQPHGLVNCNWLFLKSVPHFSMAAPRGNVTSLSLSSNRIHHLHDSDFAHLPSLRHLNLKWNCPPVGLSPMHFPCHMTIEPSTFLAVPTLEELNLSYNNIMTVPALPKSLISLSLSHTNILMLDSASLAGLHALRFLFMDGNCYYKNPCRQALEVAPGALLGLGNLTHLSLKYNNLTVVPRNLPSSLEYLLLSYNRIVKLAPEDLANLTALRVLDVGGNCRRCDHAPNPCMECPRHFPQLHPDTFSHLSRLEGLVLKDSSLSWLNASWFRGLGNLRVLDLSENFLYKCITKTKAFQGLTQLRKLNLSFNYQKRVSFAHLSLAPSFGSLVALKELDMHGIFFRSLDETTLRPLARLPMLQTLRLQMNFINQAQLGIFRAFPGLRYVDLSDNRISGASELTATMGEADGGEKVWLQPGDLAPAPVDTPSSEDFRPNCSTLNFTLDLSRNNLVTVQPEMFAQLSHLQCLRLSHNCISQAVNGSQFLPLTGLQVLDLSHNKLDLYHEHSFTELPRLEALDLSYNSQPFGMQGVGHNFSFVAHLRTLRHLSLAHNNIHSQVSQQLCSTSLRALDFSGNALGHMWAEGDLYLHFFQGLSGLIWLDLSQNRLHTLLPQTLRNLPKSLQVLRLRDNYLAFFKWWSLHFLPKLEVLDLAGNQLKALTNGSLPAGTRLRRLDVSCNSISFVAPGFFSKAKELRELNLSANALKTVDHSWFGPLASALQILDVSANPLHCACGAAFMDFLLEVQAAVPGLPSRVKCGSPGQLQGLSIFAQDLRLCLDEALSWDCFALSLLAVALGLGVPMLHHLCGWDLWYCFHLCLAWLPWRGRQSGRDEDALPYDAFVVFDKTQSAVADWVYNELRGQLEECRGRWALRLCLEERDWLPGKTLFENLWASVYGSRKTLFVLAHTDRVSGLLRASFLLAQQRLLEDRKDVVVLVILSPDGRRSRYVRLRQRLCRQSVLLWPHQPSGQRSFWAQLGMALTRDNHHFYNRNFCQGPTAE
As to the kind of experiment: TLR9 inhibition reporter assay (HEK-Blue cells, SEAP reporter, ODN2006 stimulation). The settings on record: HEK-Blue cells overexpressing human TLR9, SEAP reporter, ODN2006 5 nM. In short, it runs like this:
(§1)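 Cells seeded per well (15000 TLR7, 20,000 TLR8, 25,000 TLR9); compound added over 0.05 nM–50 μM for 30 min at room temperature; agonist added (TLR7 gardiquimod 7.5 μM, TLR8 R848 15.9 μM, TLR9 ODN2006 5 nM); 22 h at 37 °C; SEAP measured; percent inhibition calculated.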

The target in another assay is T2, human TLR7 (Homo sapiens, UniProt Q9NYK1).
T2 construct: host or cells: HEK-Blue cells (HEK293-derived reporter line)
T2 sequence (Q9NYK1 27-1049): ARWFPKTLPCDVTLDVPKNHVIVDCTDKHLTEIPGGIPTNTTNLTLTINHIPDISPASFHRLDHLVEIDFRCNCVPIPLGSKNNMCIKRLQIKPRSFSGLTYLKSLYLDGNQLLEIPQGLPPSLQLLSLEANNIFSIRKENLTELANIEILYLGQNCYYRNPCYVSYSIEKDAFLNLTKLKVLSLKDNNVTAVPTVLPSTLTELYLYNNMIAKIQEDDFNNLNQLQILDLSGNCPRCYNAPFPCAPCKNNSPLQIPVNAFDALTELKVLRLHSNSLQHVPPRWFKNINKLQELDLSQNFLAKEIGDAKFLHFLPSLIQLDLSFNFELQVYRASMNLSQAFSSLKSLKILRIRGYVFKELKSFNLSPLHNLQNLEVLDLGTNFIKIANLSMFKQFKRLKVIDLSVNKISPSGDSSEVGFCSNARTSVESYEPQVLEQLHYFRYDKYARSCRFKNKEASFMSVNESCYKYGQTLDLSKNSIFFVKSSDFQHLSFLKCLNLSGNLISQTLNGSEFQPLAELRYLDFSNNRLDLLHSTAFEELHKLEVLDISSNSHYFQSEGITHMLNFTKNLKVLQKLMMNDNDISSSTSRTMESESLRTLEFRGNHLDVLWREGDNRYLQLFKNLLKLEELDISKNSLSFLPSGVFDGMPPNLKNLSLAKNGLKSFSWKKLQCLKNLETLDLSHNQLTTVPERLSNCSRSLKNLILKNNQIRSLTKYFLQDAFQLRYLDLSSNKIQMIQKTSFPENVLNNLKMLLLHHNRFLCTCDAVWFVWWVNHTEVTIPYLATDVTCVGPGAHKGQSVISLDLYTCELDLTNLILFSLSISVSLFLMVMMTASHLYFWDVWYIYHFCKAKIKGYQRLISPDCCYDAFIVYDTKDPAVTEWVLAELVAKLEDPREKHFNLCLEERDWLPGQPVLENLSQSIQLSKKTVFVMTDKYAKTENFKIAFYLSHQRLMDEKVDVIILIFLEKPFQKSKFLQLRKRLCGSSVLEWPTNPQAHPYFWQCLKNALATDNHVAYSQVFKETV
Put plainly: TLR7 inhibition reporter assay (HEK-Blue cells, SEAP reporter, gardiquimod stimulation). Particulars: HEK-Blue cells overexpressing human TLR7, SEAP reporter, gardiquimod 7.5 μM. In outline:
as §1

In another assay the target is T3, human TLR8 (Homo sapiens, UniProt Q9NR97).
T3 construct: host or cells: HEK-Blue cells (HEK293-derived reporter line)
T3 sequence (Q9NR97 27-1041): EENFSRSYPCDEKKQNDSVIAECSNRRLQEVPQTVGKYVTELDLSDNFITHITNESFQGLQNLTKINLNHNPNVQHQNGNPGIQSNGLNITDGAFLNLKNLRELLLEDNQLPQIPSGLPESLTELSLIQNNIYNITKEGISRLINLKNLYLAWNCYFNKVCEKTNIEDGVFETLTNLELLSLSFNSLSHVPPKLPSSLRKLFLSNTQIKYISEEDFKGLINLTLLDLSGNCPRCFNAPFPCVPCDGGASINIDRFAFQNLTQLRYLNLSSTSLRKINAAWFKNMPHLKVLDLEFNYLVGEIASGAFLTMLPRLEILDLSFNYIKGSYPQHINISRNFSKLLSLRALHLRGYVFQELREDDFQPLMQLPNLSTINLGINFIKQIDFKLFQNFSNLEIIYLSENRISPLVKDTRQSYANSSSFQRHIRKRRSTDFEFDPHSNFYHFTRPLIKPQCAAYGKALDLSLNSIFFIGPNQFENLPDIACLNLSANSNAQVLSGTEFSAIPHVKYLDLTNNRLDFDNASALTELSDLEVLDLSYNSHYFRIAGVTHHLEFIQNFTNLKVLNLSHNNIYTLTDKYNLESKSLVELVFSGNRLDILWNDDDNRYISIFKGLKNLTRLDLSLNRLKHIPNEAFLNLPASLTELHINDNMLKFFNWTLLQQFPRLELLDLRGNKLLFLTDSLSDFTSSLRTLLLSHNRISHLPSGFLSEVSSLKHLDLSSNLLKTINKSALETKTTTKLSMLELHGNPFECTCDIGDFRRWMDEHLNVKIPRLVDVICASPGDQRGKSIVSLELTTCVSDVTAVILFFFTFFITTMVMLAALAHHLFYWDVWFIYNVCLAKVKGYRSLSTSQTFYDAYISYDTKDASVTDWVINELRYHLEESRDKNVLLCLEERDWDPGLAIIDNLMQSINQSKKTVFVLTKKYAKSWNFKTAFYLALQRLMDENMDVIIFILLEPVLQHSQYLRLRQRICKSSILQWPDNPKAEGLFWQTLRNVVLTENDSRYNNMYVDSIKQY
Put plainly: TLR8 inhibition reporter assay (HEK-Blue cells, SEAP reporter, R848 stimulation). The settings on record: HEK-Blue cells overexpressing human TLR8, SEAP reporter, R848 15.9 μM. In short, it runs like this: as §1

On to `CCc1c(-c2ccnc3[nH]ncc23)[nH]c2c(F)cc(C3CCNCC3)cc12` [Example 251, 4-(3-ethyl-7-fluoro-5-(piperidin-4-yl)-1H-indol-2-yl)-1H-pyrazolo[3,4-b]pyridine], for which the IC50 is 0.1 to 1 µM against human TLR9, under 0.1 µM at human TLR7 and 0.1 to 1 µM against human TLR8.

For `Cc1cc(-c2[nH]c3ccc(C4CCNCC4)cc3c2C(C)C)c2ccccc2n1` [Example 104, 4-(3-isopropyl-5-(piperidin-4-yl)-1H-indol-2-yl)-2-methylquinoline], the figures for the IC50 on human TLR9, against human TLR7 and against human TLR8 were 1 to 50 µM, under 0.1 µM and under 0.1 µM, respectively.

Consider `CNCCN1CCC(c2ccc3[nH]c(-c4ccnc5[nH]ncc45)c(C(C)C)c3c2)C(F)C1` (stereo not drawn) [Example 679, 2-(3-fluoro-4-(3-isopropyl-2-(1H-pyrazolo[3,4-b]pyridin-4-yl)-1H-indol-5-yl)piperidin-1-yl)-N-methylethan-1-amine], for which the IC50 is 0.1 to 1 µM against human TLR9, under 0.1 µM against human TLR7 and under 0.1 µM against human TLR8.

On to `Cc1c(-c2ccnc3c2ccn3C)[nH]c2ccc(C3CCN(C4CCN(CC(C)C)CC4)CC3)cc12` [Example 843, 4-(5-(1′-isobutyl-[1,4′-bipiperidin]-4-yl)-3-methyl-1H-indol-2-yl)-1-methyl-1H-pyrrolo[2,3-b]pyridine], for which the figures for the IC50 against human TLR9, against human TLR7 and on human TLR8 were under 0.1 µM, 1 to 50 µM and under 0.1 µM, respectively.

Consider `Cc1c(-c2ccnc3[nH]cnc23)[nH]c2ccc(C3CCNCC3)cc12` [Example 60, 7-(3-methyl-5-(piperidin-4-yl)-1H-indol-2-yl)-3H-imidazo[4,5-b]pyridine], for which the half-inhibitory concentration (IC50) on human TLR9 is 0.1 to 1 µM; on human TLR7, under 0.1 µM; against human TLR8 it was 0.1 to 1 µM.

`CC(C)c1c(-c2coc3cccnc23)[nH]c2ccc(C3CCNCC3)cc12` [Example 20, 3-(3-isopropyl-5-(piperidin-4-yl)-1H-indol-2-yl)furo[3,2-b] pyridine]: the IC50 against human TLR9 was 1 to 50 µM; on human TLR7, over 3.13 µM; against human TLR8, over 3.13 µM.

Consider `CCCCc1nc(Cl)c(CN2CCC(c3ccc4[nH]c(-c5ccnc6[nH]ncc56)c(C(C)C)c4c3)CC2)[nH]1` [Example 896, 4-(5-(1-((2-butyl-4-chloro-1H-imidazol-5-yl)methyl)piperidin-4-yl)-3-isopropyl-1H-indol-2-yl)-1H-pyrazolo[3,4-b]pyridine], for which the half-maximal inhibitory concentration (IC50) against human TLR9 is 1 to 50 µM; against human TLR7, 0.1 to 1 µM; against human TLR8, under 0.1 µM.

With `CC(C)c1c(-c2ccc3nccn3c2)[nH]c2ccc(C3CCN(C(=O)CN(C)C)CC3)cc12` [Example 572, 2-(dimethylamino)-1-(4-(2-(imidazo[1,2-a]pyridin-6-yl)-3-isopropyl-1H-indol-5-yl)piperidin-1-yl)ethan-1-one], the half-maximal inhibitory concentration (IC50) on human TLR9 is 1 to 50 µM; against human TLR7, under 0.1 µM; on human TLR8 it was 0.1 to 1 µM.

`CC(C)c1c(-c2ccnc3cnn(C)c23)[nH]c2ccc(C3CCNCC3)cc12` [Example 42, 7-(3-isopropyl-5-(piperidin-4-yl)-1H-indol-2-yl)-1-methyl-1H-pyrazolo[4,3-b]pyridine]: the IC50 was in the range of 1 to 50 µM at human TLR9, 1 to 50 µM against human TLR7 and 0.1 to 1 µM on human TLR8.

With `CCc1c(-c2ccnc3[nH]ncc23)[nH]c2ccc(C3CCN(C(=O)CNC)CC3)cc12` [Example 462, 1-(4-(3-ethyl-2-(1H-pyrazolo [3,4-b]pyridin-4-yl)-1H-indol-5-yl)piperidin-1-yl)-2-(methylamino)ethan-1-one], the half-inhibitory concentration (IC50) was 1 to 50 µM against human TLR9, under 0.1 µM on human TLR7 and under 0.1 µM against human TLR8.

For `CC(C)c1c(-c2cc(F)c3nccn3c2)[nH]c2ccc(C3CCNCC3)cc12` [Example 118, 8-fluoro-6-(3-isopropyl-5-(piperidin-4-yl)-1H-indol-2-yl)imidazo[1,2-a]pyridine], the half-maximal inhibitory concentration (IC50) against human TLR9 was 0.1 to 1 µM; against human TLR7, under 0.1 µM; on human TLR8, under 0.1 µM.

`Cc1c(-c2ccnc3[nH]ccc23)[nH]c2ccc(C3CCN(C4CCN(CC(C)C)CC4)CC3)cc12` [Example 812, 4-(5-(1′-isobutyl-[1,4′-bipiperidin]-4-yl)-3-methyl-1H-indol-2-yl)-1H-pyrrolo[2,3-b]pyridine]: the half-inhibitory concentration (IC50) against human TLR9, at human TLR7 and against human TLR8 was under 0.1 µM in each case.

As for `Cc1cc(-c2[nH]c3ccc(C4CCN(Cc5ccn(C)n5)CC4)cc3c2C(C)C)cn2nncc12` [Example 882, 6-(3-isopropyl-5-(1-((1-methyl-1H-pyrazol-3-yl)methyl)piperidin-4-yl)-1H-indol-2-yl)-4-methyl-[1,2,3]triazolo[1,5-a]pyridine], the IC50 against human TLR9 is 1 to 50 µM; against human TLR7, 1 to 50 µM; against human TLR8 it was 0.1 to 1 µM.
